Measurements: US7179823B1, “5-membered n-heterocyclic compounds with hypoglycemic and hypolipidemic activity” (Takeda Pharmaceutical Company Limited, priority 1999, dated 2007)

melting point [°C]	Structure (SMILES)
137 to 138	COc1ccc(-c2nn(Cc3ccc(OCc4nc(-c5ccccc5)oc4C)cc3)cc2CCC(=O)O)cc1 [Example 102, 3-[3-(4-methoxyphenyl)-1-[4-(5-methyl-2-phenyl-4-oxazolylmethoxy)benzyl]-1H-pyrazol-4-yl]propionic acid]
92 to 93	Cc1oc(-c2ccco2)nc1COc1ccc(Cn2cc(CCC(=O)O)c(-c3ccc(C(F)(F)F)cc3)n2)cc1 [Example 103, 3-[1-[4-[2-(2-furyl)-5-methyl-4-oxazolylmethoxy)benzyl]-3-(4-trifluoromethylphenyl)-1H-pyrazol-4-yl]propionic acid]
125 to 126	Cc1oc(-c2ccco2)nc1COc1ccc(Cn2cc(CCC(=O)O)c(-c3ccc(F)cc3)n2)cc1 [Example 105, 3-[3-(4-fluorophenyl)-1-[4-[2-(2-furyl)-5-methyl-4-oxazolylmethoxy)benzyl]-1H-pyrazol-4-yl]propionic acid]
194 to 195	Cc1oc(-c2ccccc2)nc1COc1ccc(Cn2cc(C(=O)O)c(C(C)C)n2)cc1 [Example 106, 3-isopropyl-1-[4-(5-methyl-2-phenyl-4-oxazolylmethoxy)benzyl]-1H-pyrazol-4-carboxylic acid]
97 to 98	Cc1oc(-c2ccccc2)nc1COc1ccc(Cn2cc(CCC(=O)O)c(C(C)C)n2)cc1 [Example 108, 3-[3-isopropyl-1-[4-(5-methyl-2-phenyl-4-oxazolylmethoxy)benzyl]-1H-pyrazol-4-yl]propionic acid]
158 to 159	CCCc1c(CCC(=O)O)cnn1Cc1ccc(OCc2nc(-c3ccccc3)oc2C)cc1 [Example 112, 3-[1-[4-(5-methyl-2-phenyl-4-oxazolylmethoxy)benzyl]-5-propyl-1H-pyrazol-4-yl]propionic acid]
142 to 143	Cc1oc(-c2ccccc2)nc1CCOc1ccc(Cn2cc(CCC(=O)O)c(-c3ccccc3)n2)cc1 [Example 114, 3-[1-[4-[2-(5-methyl-2-phenyl-4-oxazolyl)ethoxy]benzyl]-3-phenyl-1H-pyrazol-4-yl]propionic acid]
85 to 86	Cc1oc(-c2ccccc2)nc1COc1ccc(CCn2cc(CCC(=O)O)c(-c3ccccc3)n2)cc1 [Example 116, 3-[1-[2-[4-(5-methyl-2-phenyl-4-oxazolylmethoxy)phenyl]ethyl]-3-phenyl-1H-pyrazol-4-yl]propionic acid]
124 to 125	Cc1oc(-c2ccccc2)nc1COc1ccc(Cn2cc(CCC(=O)O)cn2)cc1 [Example 142, 3-[1-[4-(5-methyl-2-phenyl-4-oxazolylmethoxy)benzyl]-1H-pyrazol-4-yl]propionic acid]
140 to 141	CCOc1nn(Cc2ccc(OCc3ccc4ccccc4n3)cc2)cc1CCC(=O)O [Example 209, 3-[3-ethoxy-1-[4-(2-quinolylmethoxy)benzyl]-1H-pyrazol-4-yl]propionic acid]
114 to 115	CCOc1nn(Cc2ccnc(OCc3nc(-c4ccccc4)oc3C)c2)cc1CCC(=O)O [Example 211, 3-[3-ethoxy-1-[2-(5-methyl-2-phenyl-4-oxazolylmethoxy)-4-pyridylmethyl]-1H-pyrazol-4-yl]propionic acid]
133 to 134	CCOc1nn(Cc2cncc(OCc3nc(-c4ccccc4)oc3C)c2)cc1CCC(=O)O [Example 213, 3-[3-ethoxy-1-[5-(5-methyl-2-phenyl-4-oxazolylmethoxy)-3-pyridylmethyl]-1H-pyrazol-4-yl]propionic acid]
109 to 110	CCOC(=O)CCc1cn(Cc2ccc(OC)c(OCc3nc(-c4ccccc4)oc3C)c2)nc1OCC [Example 214, ethyl 3-[3-ethoxy-1-[4-methoxy-3-(5-methyl-2-phenyl-4-oxazolylmethoxy)benzyl]-1H-pyrazol-4-yl]propionate]
136 to 137	CCOc1nn(Cc2ccc(OC)c(OCc3nc(-c4ccccc4)oc3C)c2)cc1CCC(=O)O [Example 215, 3-[3-ethoxy-1-[4-methoxy-3-(5-methyl-2-phenyl-4-oxazolylmethoxy)benzyl]-1H-pyrazol-4-yl]propionic acid]
105 to 106	CCOc1cc(Cn2cc(CCC(=O)O)c(OCC)n2)ccc1OCc1nc(-c2ccccc2)oc1C [Example 217, 3-[3-ethoxy-1-[3-ethoxy-4-(5-methyl-2-phenyl-4-oxazolylmethoxy)benzyl]-1H-pyrazol-4-yl]propionic acid]
82 to 83	CCOC(=O)CCc1cn(Cc2cc(OCc3nc(-c4ccccc4)oc3C)no2)nc1OCC [Example 218, ethyl 3-[3-ethoxy-1-[3-(5-methyl-2-phenyl-4-oxazolylmethoxy)-5-isoxazolylmethyl]-1H-pyrazol-4-yl]propionate]
142 to 143	CCOc1nn(Cc2cc(OCc3nc(-c4ccccc4)oc3C)no2)cc1CCC(=O)O [Example 219, 3-[3-ethoxy-1-[3-(5-methyl-2-phenyl-4-oxazolylmethoxy)-5-isoxazolylmethyl]-1H-pyrazol-4-yl]propionic acid]
152 to 153	CCOc1nn(Cc2ccc(OCCn3ncc4ccccc4c3=O)cc2)cc1CCC(=O)O [Example 220, 3-[3-ethoxy-1-[4-[2-[1-oxophthalazin-2(1H)-yl]ethoxy]benzyl]-1H-pyrazol-4-yl]propionic acid]
146 to 147	CCOc1nn(Cc2cccc(OCCn3ncc4ccccc4c3=O)c2)cc1CCC(=O)O [Example 221, 3-[3-ethoxy-1-[3-[2-[1-oxophthalazin-2(1H)-yl]ethoxy]benzyl]-1H-pyrazol-4-yl]propionic acid]
144 to 145	CCOc1nn(Cc2cccc(OCc3nc(-c4ccccc4)oc3C)n2)cc1CCC(=O)O [Example 223, 3-[3-ethoxy-1-[6-(5-methyl-2-phenyl-4-oxazolylmethoxy)-2-pyridylmethyl]-1H-pyrazol-4-yl]propionic acid]
69 to 70	CCOC(=O)CCc1cn(Cc2ccc(OCc3cn4c(Cl)cccc4n3)cc2)nc1OCC [Example 224, ethyl 3-[1-[4-(5-chloroimidazo[1,2-a]pyridin-2-ylmethoxy)benzyl]-3-ethoxy-1H-pyrazol-4-yl]propionate]
153 to 154	CCOc1nn(Cc2ccc(OCc3cn4c(Cl)cccc4n3)cc2)cc1CCC(=O)O [Example 225, 3-[1-[4-(5-chloroimidazo[1,2-a]pyridin-2-ylmethoxy)benzyl]-3-ethoxy-1H-pyrazol-4-yl]propionic acid]
197 to 198	CCOc1nn(Cc2ccc(OCc3cn4c(OCC)cccc4n3)cc2)cc1CCC(=O)O [Example 227, 3-[3-ethoxy-1-[4-(5-ethoxyimidazo[1,2-a]pyridin-2-ylmethoxy)benzyl]-1H-pyrazol-4-yl]propionic acid]
136 to 137	CCOc1nn(Cc2ccc(OCn3nnc4ccccc43)cc2)cc1CCC(=O)O [Example 229, 3-[1-[4-(1H-benzotriazol-1-ylmethoxy)benzyl]-3-ethoxy-1H-pyrazol-4-yl]propionic acid]
140 to 141	CCOc1nn(Cc2ccc(OCc3ccc(-c4ccccc4)nc3)cc2)cc1CCC(=O)O [Example 230, 3-[3-ethoxy-1-[4-(6-phenyl-3-pyridylmethoxy)benzyl]-1H-pyrazol-4-yl]propionic acid]
